The values below come from publication PMC9636434, “Discovery of small molecule agonists of the Relaxin Family Peptide Receptor 2” (Communications Biology, 2022).

What all share (format): cell-based
For one assay, the target named is RXFP2 (Homo sapiens, UniProt Q8WXD0). The experiment in a line: HTRF cAMP assay in HEK-RXFP2 cells (stably transfected; also primary HTS). On the set-up: FLAG (N); expressed in transfected cells. The note with it: Fig. 1a, initial hit and enantiomers. Here is the method: A quantitative high-throughput screening (HTS) of more than 80 K compounds of the NCATS/NIH diversity collection was performed at four concentrations in HEK293T cells stably expressing human RXFP2 to identify candidate agonists. A homogenous time resolved fluorescence (HTRF) assay was used to directly detect compound-induced cAMP accumulation, with forskolin or human recombinant INSL3 serving as positive controls. […] A confirmatory CRE-luciferase cAMP screen was used to eliminate any potential false positives due to assay detection artifacts (Supplementary Fig. 1a).
The cAMP response induced by the compounds was normalized to the cAMP response induced by 100 nM INSL3 as 100% efficacy and the cAMP response induced by DMSO vehicle as 0% efficacy. Emax and EC50 were calculated using four parameter nonlinear fit dose-response stimulation curves. […] Molecular weight (MW).
The HTRF Gs dynamic cAMP assay kit (CisBio, Bedford, MA) was used to measure intracellular cAMP accumulation in HEK293T cells (ATCC, Manassas, VA)[56]. […] The cell stock was verified mycoplasma free and authenticated by ATCC. Transient transfection was accomplished by treating cells in a 6-well plate with a mixture of 2 μg plasmid and 6 μL Lipofectamine 2000 (Invitrogen, Waltham, MA) per manufacturer’s protocol and incubating overnight. For cAMP measurement in 96-well format, HEK293T cells stably transfected with human RXFP2 (HEK-RXFP2), human RXFP1 (HEK-RXFP1), mouse Rxfp1 (HEK-Rxfp1) or transiently transfected with human RXFP1-RXFP2 chimeric receptors were seeded between 7500 and 30,000 cells per well, depending on cell line responsiveness, in serum-free DMEM medium and incubated overnight at 37 °C, 5% CO2. After 18 h, cells were treated with a titration of compound, 2 μM forskolin, or DMSO vehicle. Control wells were also treated with a titration of INSL3 (Phoenix Pharmaceuticals, Burlingame, CA) or human recombinant relaxin 2 (Peprotech, Cranbury, NJ). For the RXFP2 antagonist experiment, cells were co-treated with 0.28 μM compound or 30 nM INSL3 and a titration of the INSL3 B dimer antagonist[38],[39]. For the INSL3 allosteric modulation experiment, cells were co-treated with 0.025, 0.0025, or 0.00025 μM of compound and a titration of INSL3. Cells were incubated for 1 h at 37 °C, 5% CO2, and then kit cAMP-d2 and anti-cAMP antibody were added per manufacturer protocol. Plates were incubated for 1 h at room temperature and the signal was read on a CLARIOstar plate reader (BMG Labtech, Ortenberg, Germany) at 665 and 620 nm emission wavelengths.

A further assay has as its target T1, human RXFP3 (Homo sapiens, UniProt Q9NSD7).
T1 construct: host or cells: HEK293T (transient)
T1 sequence (Q9NSD7 1-469): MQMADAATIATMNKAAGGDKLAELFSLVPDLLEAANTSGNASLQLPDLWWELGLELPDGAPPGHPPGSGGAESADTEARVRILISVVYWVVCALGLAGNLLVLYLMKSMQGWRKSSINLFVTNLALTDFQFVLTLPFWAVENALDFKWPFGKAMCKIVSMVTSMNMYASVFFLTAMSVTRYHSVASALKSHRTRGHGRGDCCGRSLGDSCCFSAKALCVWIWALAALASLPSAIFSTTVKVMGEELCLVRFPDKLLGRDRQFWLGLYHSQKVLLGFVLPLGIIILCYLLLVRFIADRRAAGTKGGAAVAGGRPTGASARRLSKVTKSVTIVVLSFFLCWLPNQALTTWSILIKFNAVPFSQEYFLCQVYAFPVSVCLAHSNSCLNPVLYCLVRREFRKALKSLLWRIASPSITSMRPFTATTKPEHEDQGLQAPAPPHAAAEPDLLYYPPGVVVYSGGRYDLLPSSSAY
Kind of assay: GloSensor cAMP assay in RXFP3 transiently transfected HEK293T cells. The note with it: for RLU (cAMP, raw): RXFP3, 0.1 µM isoproterenol, replicates (1)-(4).

Another assay addresses T2, human RXFP4 (Homo sapiens, UniProt Q8TDU9).
T2 construct: host or cells: HEK293T (transient)
The experiment in a line: GloSensor cAMP assay in RXFP4 transiently transfected HEK293T cells. To be noted: for RLU (cAMP, raw): RXFP4, 0.1 µM isoproterenol, replicates (1)-(4).

Where [1] appears, read: cAMP induced by 0.1 µM isoproterenol.

Several values for one entry are separate records, joined by “and”; a condition that tells them apart may be missing. Equal values may be shown once.

T2 sequence (Q8TDU9 whole entry): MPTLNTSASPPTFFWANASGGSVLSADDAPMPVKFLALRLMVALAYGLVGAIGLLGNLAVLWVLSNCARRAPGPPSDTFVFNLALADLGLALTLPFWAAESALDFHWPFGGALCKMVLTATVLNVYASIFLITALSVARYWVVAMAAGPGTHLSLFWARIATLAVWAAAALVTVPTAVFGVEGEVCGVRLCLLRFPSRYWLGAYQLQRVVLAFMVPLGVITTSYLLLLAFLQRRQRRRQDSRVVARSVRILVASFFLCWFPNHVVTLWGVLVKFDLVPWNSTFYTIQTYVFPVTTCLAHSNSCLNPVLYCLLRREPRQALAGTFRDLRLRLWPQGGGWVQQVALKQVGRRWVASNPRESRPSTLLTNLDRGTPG
Chain of RXFP2 (Q8WXD0 whole entry): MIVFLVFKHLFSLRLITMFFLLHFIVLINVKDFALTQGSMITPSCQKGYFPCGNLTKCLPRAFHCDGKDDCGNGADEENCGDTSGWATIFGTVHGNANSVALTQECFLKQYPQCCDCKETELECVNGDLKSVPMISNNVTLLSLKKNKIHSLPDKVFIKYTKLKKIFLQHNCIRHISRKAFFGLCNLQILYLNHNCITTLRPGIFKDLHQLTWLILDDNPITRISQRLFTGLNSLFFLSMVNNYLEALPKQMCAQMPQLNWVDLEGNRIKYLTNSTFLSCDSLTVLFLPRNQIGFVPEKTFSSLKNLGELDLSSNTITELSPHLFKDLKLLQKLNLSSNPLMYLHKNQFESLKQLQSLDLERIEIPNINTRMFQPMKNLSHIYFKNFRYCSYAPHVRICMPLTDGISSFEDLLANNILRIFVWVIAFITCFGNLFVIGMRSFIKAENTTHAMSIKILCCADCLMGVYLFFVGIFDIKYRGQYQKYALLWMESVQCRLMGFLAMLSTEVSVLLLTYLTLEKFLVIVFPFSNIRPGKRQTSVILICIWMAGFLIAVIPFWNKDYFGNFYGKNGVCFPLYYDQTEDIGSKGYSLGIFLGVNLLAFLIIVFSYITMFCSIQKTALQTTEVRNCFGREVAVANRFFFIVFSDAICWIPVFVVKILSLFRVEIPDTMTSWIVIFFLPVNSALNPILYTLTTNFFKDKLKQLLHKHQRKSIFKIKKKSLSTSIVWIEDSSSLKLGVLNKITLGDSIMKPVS

Take `O=C1Nc2ccc(-c3cccc(C(F)(F)F)c3)cc2C(=O)N2CCN(C(=O)COc3ccccc3)CC12` (centres unmarked) [compound 8685]: the “RXFP2 agonist activity in SAR scheme (Active / Inactive)” value at RXFP2 is given as “Active”.

Regarding `O=C1Nc2ccc(-c3cccc(C(F)(F)F)c3)cc2C(=O)N2CCN(C(=O)COc3ccccc3)C[C@H]12` [compound 9940], the “RXFP2 agonist activity in SAR scheme (Active / Inactive)” value on RXFP2 is on record as “Inactive”.

For `O=C1Nc2ccc(-c3cccc(C(F)(F)F)c3)cc2C(=O)N2CCN(C(=O)COc3ccccc3)C[C@@H]12` [compound 9941], the “RXFP2 agonist activity in SAR scheme (Active / Inactive)” value on RXFP2 is “Active”.

Take Relaxin 3 [reference compound]: the “RLU (cAMP, raw)” value on human RXFP3 (Log [M] -6.52) is 1192.27 RLU and 862.59 RLU and 949.473 RLU and 1055.99 RLU; at human RXFP3 (Log [M] -7), 1047.66 RLU and 816.174 RLU and 793.561 RLU and 818.554 RLU; at human RXFP3 (Log [M] -7.52) it was 956.019 RLU and 1042.31 RLU and 964.35 RLU and 906.626 RLU; on human RXFP3 (Log [M] -8), 852.474 RLU and 715.01 RLU and 962.564 RLU and 860.21 RLU; on human RXFP3 (Log [M] -8.52) it was 886.989 RLU and 845.333 RLU and 966.73 RLU and 845.928 RLU; at human RXFP3 (Log [M] -9) it was 816.769 RLU and 926.264 RLU and 1003.03 RLU and 782.254 RLU. Further, the “RLU (cAMP, raw)” value at human RXFP3 (Log [M] -9.52) is 998.865 RLU and 951.853 RLU and 1093.48 RLU and 960.779 RLU; on human RXFP3 (Log [M] -10) it was 1300.57 RLU and 1261.3 RLU and 1319.62 RLU and 1454.11 RLU; on human RXFP3 (Log [M] -10.52), 1602.51 RLU and 1583.63 RLU and 1833.56 RLU and 1666.69 RLU; at human RXFP3 (Log [M] -11), 1772.4 RLU and 1591.93 RLU and 1761.07 RLU and 2392.31 RLU; on human RXFP3 (Log [M] -11.52) it was 1947.57 RLU and 1934.74 RLU and 2203.54 RLU and 1701.42 RLU; on human RXFP3 (Log [M] -12), 1918.12 RLU and 1736.15 RLU and 2144.65 RLU and 2026.1 RLU. Besides, the “RLU (cAMP, raw)” value was 1291.4 RLU and 1273.39 RLU and 1346.81 RLU and 1344.73 RLU at human RXFP4 (Log [M] -6.48); 1098.17 RLU and 1299.02 RLU and 1204.83 RLU and 1290.02 RLU at human RXFP4 (Log [M] -7); 1677.86 RLU and 1738.12 RLU and 1419.53 RLU and 1594.75 RLU on human RXFP4 (Log [M] -7.48); 1308.71 RLU and 1324.64 RLU and 953.421 RLU and 1409.83 RLU on human RXFP4 (Log [M] -8); 1529.65 RLU and 1656.39 RLU and 1650.16 RLU and 1971.52 RLU at human RXFP4 (Log [M] -8.48); 1954.9 RLU and 1829.54 RLU and 1896.03 RLU and 2124.58 RLU on human RXFP4 (Log [M] -9). In addition, the “RLU (cAMP, raw)” value at human RXFP4 (Log [M] -9.48) is 2502.74 RLU and 2781.85 RLU and 2785.32 RLU and 3087.98 RLU; on human RXFP4 (Log [M] -10), 2794.2 RLU and 2602.12 RLU and 2925.02 RLU and 3021.06 RLU; on human RXFP4 (Log [M] -10.48), 3431.68 RLU and 3104.99 RLU and 3415.8 RLU and 3651.73 RLU; on human RXFP4 (Log [M] -11) it was 3106.51 RLU and 3181.37 RLU and 2993.83 RLU and 2959.05 RLU; on human RXFP4 (Log [M] -11.48), 3672.91 RLU and 3117.85 RLU and 3373.45 RLU and 3185.15 RLU; on human RXFP4 (Log [M] -12) it was 3273.63 RLU and 3139.78 RLU and 2622.54 RLU and 2913.68 RLU. In addition, the “activation of RXFP3 (cAMP inhibition)” value at human RXFP3 (setting [1]) was “cAMP inhibition was induced”. The “activation of RXFP4 (cAMP inhibition)” value on human RXFP4 (setting [1]) was “cAMP inhibition was induced”.
